From patent US20240366564A1, “Use of Chlorophyll Derivatives for the Treatment of SARS-CoV-2 Infection” (priority 2021, published 2024)

Legend:
[1] = test system: SARS-CoV-2 USA-WA1/2020 virus; type: cell-based
[2] = test system: SARS-CoV-2 alpha variant (B.1.1.7 lineage); type: cell-based

Q: C=Cc1c(C)c2cc3nc(c4c5[nH]c(cc6nc(cc1[nH]2)C(C)=C6CC)c(C)c5C(=O)[C@@H]4C(=O)OC)[C@@H](CCC(=O)O)[C@@H]3C [Pheophorbide A] was tested. Which “inhibition of SARS-CoV-2 infection, summary of FIGS. 5-10” value [1] did it give?
A: inhibits SARS-CoV-2 infection in a dose-dependent manner

Q: And the “effect of photoactivation on inhibition of infection” value [2]?
A: enhanced with photoactivation

Q: And the “inhibition of SARS-CoV-2 infection in culture” value [2]?
A: significantly inhibits
